Measured values from patent US20070135383A1, “Phospholipase inhibitors, including multi-valent phospholipase inhibitors, and use thereof, including as lumen-localized phospholipase inhibitors” (priority 2005, published 2007).

Key:
Assay type in all cases: in vivo
[1] = system: C57BL/6J mouse model of obesity; experiment: Mouse diet-induced obesity model (Example 19); conditions: low fat control diet D12328, 25 or 90 mg/kg/d
Description: The high-fat diet-fed C57BL/6J mouse model of human diabetes, originally introduced by Surwit and colleagues (Surwit, R S, et al. (1988) “Diet-induced type II diabetes in C57BL/6J mice”, Diabetes 37: 1163-1167) is a widely accepted, clinically relevant, polygenic model that induces obesity, dyslipidemia, glucose- and insulin-resistance as early as 3 weeks after commencing the high fat diet (Winzell, M S and Ahren, B (2004) “The high-fat diet-fed mouse: a model for studying mechanisms and treatment of impaired glucose tolerance and type 2 diabetes”, Diabetes 53 Suppl 3: S215-219). This model was used to investigate the effects of indole and indole-related Test Articles. Avandia (rosiglitazone) was used as a control Test Article. […]
In these studies and the accompanying figures, Diet D12328 from Research Diets is referred to as the “Low Fat” or Control diet/chow, while Diet D12331 from Research Diets is referred to as the “High Fat” diet. […] The Test Article content was calculated such that ad libitum consumption by the animals would deliver doses (in mg of Test Article per kg animal weight per day) approximating those listed in Table 11.
Animals were maintained on the diets for up to eleven weeks. Body weights were recorded weekly. […] The serum was analyzed for glucose, total cholesterol, triglycerides (TG) and lysophospholipid (LPC) content. […]

[2] = system: LDL receptor knockout mice; experiment: LDL receptor knockout mouse model (Example 20); conditions: low fat control diet D12328, 25 or 90 mg/kg/d
Description: Mice lack an enzyme found in humans, cholesterol ester transfer protein (CETP), which is responsible for the transfer of cholesterol from high density lipoproteins (HDL) to the ApoB-containing lipoproteins such as very low density lipoproteins (VLDL) and low density lipoproteins (LDL). Consequently, LDL cholesterol levels in wild-type mice are very low compared to those seen in humans. The low density lipoprotein receptor (LDLR) is involved with clearing LDL and lipoprotein remnants containing apoE. If the LDLR is inactivated, LDL cholesterol levels rise to levels seen in humans. On a normal rodent diet, the LDL cholesterol levels in LDLR deficient mice are elevated compared to wild-type mice. […]
In these studies and the accompanying figures, Diet D12328 from Research Diets is referred to as the “Low Fat” or Control diet, while Diet D12079B from Research Diets is referred to as the “Western” diet. […] The Test Article content was calculated such that ad libitum consumption by the animals would deliver doses (in mg of Test Article per Kg animal weight per day) approximating those listed in Table 12.
Animals were maintained on the diets for eight weeks. Body weights were recorded weekly. […] The serum was analyzed for total cholesterol, LDL cholesterol, HDL cholesterol, triglycerides (TG), free fatty acid (FFA) and lysophospholipid (LPC) content. […]

[3] = system: mice; experiment: Toxicology, daily oral gavage for 5 consecutive days (Example 23)
Description: The purpose of this study was to evaluate the toxicity of indole and indole-related Test Articles when administered daily via oral gavage to mice for 5 consecutive days.
Assessment of toxicity was based on mortality; clinical signs, body weight, food consumption, clinical pathology, and macroscopic pathology data.

SMILES: Cc1c(C(=O)C(N)=O)c2c(OCC(=O)O)cccc2n1CCCCCCCCCCCCOc1ccc(C(C)(C)c2ccc(OCCCCCCCCCCCCn3c(C)c(C(=O)C(N)=O)c4c(OCC(=O)O)cccc43)cc2)cc1 [ILY4011]
- effect of test article in animals fed low fat control diet [1]: No or little effect
- effect of test article in animals fed low fat control diet [2]: No or little effect
- clinical pathology data, treated groups vs vehicle control group [3]: no differences
